Source: US7141546B1, “CRFR2 selective ligands” (priority 2001, dated 2006)

How the values were obtained:
CRFR1 [1] = target: T1, CRFR1 (Homo sapiens, UniProt P34998); assay: Competitive displacement binding assay, cloned hCRFR1 expressed in CHO cells
T1 construct: expressed in transfected cells
T1 sequence (P34998 24-415): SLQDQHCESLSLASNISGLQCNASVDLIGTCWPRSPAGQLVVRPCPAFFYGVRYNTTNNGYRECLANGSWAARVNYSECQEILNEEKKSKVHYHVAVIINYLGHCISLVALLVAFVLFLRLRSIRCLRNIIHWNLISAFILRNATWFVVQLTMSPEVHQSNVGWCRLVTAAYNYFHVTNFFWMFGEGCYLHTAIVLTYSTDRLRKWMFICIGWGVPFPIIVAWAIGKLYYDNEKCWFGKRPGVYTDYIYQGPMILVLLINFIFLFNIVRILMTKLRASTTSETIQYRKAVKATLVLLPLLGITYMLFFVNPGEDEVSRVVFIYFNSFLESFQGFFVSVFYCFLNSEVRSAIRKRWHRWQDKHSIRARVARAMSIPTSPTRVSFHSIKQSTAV
Description: A candidate CRFR2 ligand is also easily evaluated in a binding assay using known CRF receptors, such as that described in Perrin, M., et al., Endocrinology, 118, 1171–1179 (1986). CRF receptors and the details of binding assays are discussed later in this specification. […] One such representative binding assay utilizing CRF-R1 receptor is described in Chen, et al., P.N.A.S., 90, 8967–8971 (October 1993).
(§1) CRF receptors have now been cloned and are disclosed in the aforementioned Chen et al. article, in Perrin, M., et al., P.N.A.S, 92, 2969–2973 (March 1995), and in Lovenberg, T., et al., P.N.A.S., 92, 836–840 (January 1995). Binding affinity is a term used to refer to the strength of interaction between ligand and receptor. […] Ki (inhibitory binding affinity constant) is determined using a “standard” or “tracer” radioactive ligand and thus measures the displacement of the tracer from the receptor or binding protein; it is most properly expressed with reference to such tracer. However, so long as these assays are carefully performed under specific conditions with relatively low concentrations of receptor or the like, the calculated Ki will be substantially the same as its dissociation constant KD. […] It is particularly efficient to test for Ki because only a single tracer need be labelled, e.g. radioiodinated. […] Those reported hereinafter are derived using radioactively labeled [Tyr Glu^1, Nle^17]-Svg as a radioligand.
(§2) Binding assays with cells expressing human CRFR1 are carried out as described in the Chen et al. P.N.A.S., supra. The affinities of test peptides for CRFR1 and CRFR2b stably expressed in CHO cells were determined by competitive displacement of ^125I-(Nle^21, Tyr^32) ovine CRF (for CRFR1) or of [^125I-Tyr^o-]Ucn (for CRFR2b) as described.

human CRFR2b = target: T2, human CRFR2b (Homo sapiens, UniProt Q13324); assay: Competitive displacement binding assay, stably transfected CHO cells expressing human CRFR2b
T2 construct: expressed in transfected cells
T2 sequence (Q13324 1-438 isoform Q13324-2): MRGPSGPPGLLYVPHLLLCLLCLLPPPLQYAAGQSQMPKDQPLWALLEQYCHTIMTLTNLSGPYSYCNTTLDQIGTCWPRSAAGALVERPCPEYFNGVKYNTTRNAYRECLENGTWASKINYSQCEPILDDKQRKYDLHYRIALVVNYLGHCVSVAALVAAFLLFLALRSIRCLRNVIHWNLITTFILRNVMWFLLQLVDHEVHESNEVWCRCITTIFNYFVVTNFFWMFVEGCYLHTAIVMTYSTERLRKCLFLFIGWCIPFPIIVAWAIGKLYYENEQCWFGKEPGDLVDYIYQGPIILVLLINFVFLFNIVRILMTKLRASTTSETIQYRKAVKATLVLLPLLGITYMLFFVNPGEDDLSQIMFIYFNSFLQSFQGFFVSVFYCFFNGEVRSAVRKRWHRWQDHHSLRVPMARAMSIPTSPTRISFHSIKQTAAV
Method: as §1, §2

CRFR1 [2] = target: T1, CRFR1; assay: cAMP accumulation in CHO cells stably transfected with CRFR1 and treated with CRF; assay type: cell-based
Description: (§3) In addition to inhibiting CRF receptor binding, a candidate's CRF receptor antagonist activity may be established by the ability of the compound to antagonize an activity associated with CRF. For example, CRF is known to stimulate various biochemical processes, including adenylate cyclase activity. Therefore, compounds may be evaluated as CRF antagonists by their ability to antagonize CRF-stimulated adenylate cyclase activity by, for example, measuring cAMP levels. The inhibition of CRF-stimulated adenylate cyclase activity, determined by the assay described by G. Battaglia et al., Synapse 1:572 (1987), provides an assay for determining a compound's ability to antagonize CRF activity. Accordingly, CRF receptor antagonist activity may be determined by assay techniques which generally include an initial binding assay followed by such a cAMP screening protocol.
as §2

CRFR2 = target: T3, CRFR2 (Homo sapiens, UniProt Q13324); assay: cAMP accumulation in CHO cells stably transfected with CRFR2 and treated with CRF; assay type: cell-based; settings: CHO cells stably transfected with CRFR2, treated with CRF
T3 construct: expressed in transfected cells
T3 sequence (Q13324 1-438 isoform Q13324-2): T2 sequence (Q13324 1-438 isoform Q13324-2)
Description: as §3, with “protocol. […]” for “protocol.”

CRF receptors = assay: Intrinsic CRF activity of the antagonist; settings: when administered at the highest dosage

## CCCC[C@H](NC(=O)[C@H](CCCCN)NC(=O)[C@H](CCCNC(=N)N)NC(=O)[C@H](CC(C)C)NC(=O)[C@](C)(CC(C)C)NC(=O)[C@H](Cc1c[nH]cn1)NC(=O)[C@@H](Cc1ccccc1)NC(C)=O)C(=O)N[C@H](C(=O)N[C@@H](CCC(=O)O)C(=O)N[C@H](C(=O)N[C@@H](CCC(=O)O)C(=O)N[C@@H](CCCCN)C(=O)N[C@@H](CCC(N)=O)C(=O)N[C@@H](CCC(=O)O)C(=O)N[C@@H](CCCCN)C(=O)N[C@@H](CCC(=O)O)C(=O)N[C@@H](CCCCN)C(=O)N[C@@H](CCC(N)=O)C(=O)N[C@@H](CCC(N)=O)C(=O)N[C@@H](C)C(=O)N[C@H]1CCC(=O)NCCCC[C@@H](C(=O)N[C@@H](CC(C)C)C(=O)N[C@@H](CC(C)C)C(=O)N[C@@H](CC(C)C)C(=O)N[C@@H](CC(=O)O)C(=O)N[C@@](C)(CC(C)C)C(=O)N[C@H](C(N)=O)[C@@H](C)CC)NC(=O)[C@H](CC(N)=O)NC(=O)[C@H](CC(N)=O)NC1=O)[C@@H](C)CC)[C@@H](C)CC [Example 1 cyclic peptide, (cyclo 31–34)[Ac-D-Phe^11, His^12, CML ^13,39, Nle^17, Glu^31, Lys^34]-sauvagine(11–40)]
CRFR1 [1]
  IC50: > 500 nM
  Ki: ~1000 nM
Human CRFR2b
  Ki: 1.1 nM
CRFR1 [2]
  antagonism of CRF activity with respect to CRFR1 (cAMP accumulation): little or no effect
CRFR2
  antagonism of CRF activity with respect to CRFR2 (cAMP accumulation): effectively antagonize CRF activity
CRF receptors
  intrinsic CRF activity: only minor intrinsic CRF activity
